Test results as given in US11299496B2, “Ligands for alpha-7 nicotinic acetylcholine receptors and methods of treating neurological and inflammatory conditions” (Northeastern University, priority 2014, dated 2022).

How the values were obtained:
[1] = target: alpha-7 nAChRs (Homo sapiens, UniProt P36544); settings: cited from earlier work
[2] = Solubility comparison; type: physicochemical
[3] = target: T1, human alpha-7 nAChR (Homo sapiens, UniProt P36544); assay: Two-electrode voltage clamp of alpha-7 nAChR expressed in Xenopus oocytes (net charge); type: cell-based; settings: for Charge Alone: compound alone acting as an allosteric agonist; for Charge Alone / Charge +C: area under the curve of current vs. time; for Charge +C: compound together with choline or ACh, includes PAM and ago-PAM activity
T1 construct: expressed in transfected cells; host or cells: Xenopus laevis oocytes (cRNA injection)
T1 sequence (P36544 23-502): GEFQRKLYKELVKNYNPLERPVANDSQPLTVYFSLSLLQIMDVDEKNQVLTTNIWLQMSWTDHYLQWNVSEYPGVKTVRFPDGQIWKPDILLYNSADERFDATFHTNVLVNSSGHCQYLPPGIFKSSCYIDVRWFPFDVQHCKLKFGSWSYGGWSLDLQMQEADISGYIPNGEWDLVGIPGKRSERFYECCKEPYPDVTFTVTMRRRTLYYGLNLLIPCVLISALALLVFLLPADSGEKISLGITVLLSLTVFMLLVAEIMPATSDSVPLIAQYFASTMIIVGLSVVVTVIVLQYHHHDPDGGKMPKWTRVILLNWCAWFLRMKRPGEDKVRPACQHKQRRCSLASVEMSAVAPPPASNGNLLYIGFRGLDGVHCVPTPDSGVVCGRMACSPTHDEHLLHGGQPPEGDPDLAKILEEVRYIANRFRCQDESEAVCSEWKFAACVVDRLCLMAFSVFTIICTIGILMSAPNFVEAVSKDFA
In short: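 Human α7 nAChR co-expressed with RIC-3 in Xenopus oocytes; two-electrode clamp at −60 mV, 12 s applications in Ringer's pH 7.3. Net charge integrated over 120 s from application, normalized to prior ACh controls; measured for compound alone and with choline or ACh; n≥4 oocytes.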

[4] = target: T1, human alpha-7 nAChR; assay: Electrophysiological evaluation of PAMs and ago-PAMs in Xenopus oocytes (direct activation, direct and primed potentiation); type: cell-based; settings: for direct activation when applied alone / primed potentiation of subsequent responses to ACh applied alone: FIGS. 2A-2F; for peak efficacy in the presence of ACh: GAT154 vs GAT155
From the text: Electrophysiological evaluation in Xenopus oocytes was used to determine the potency and efficacy with which PAMs and ago-PAMs of the invention produce self-induced agonism and positive allosteric modulation of the orthosteric, agonist-induced activation of the alpha-7 nAChR. The ability of these compounds to increase the maximal channel influx and to enhance the activity of the receptor on its own as well as in presence of choline is denoted by Imax and EC50 respectively. The details of cDNA clones and RNA for injection was as published. Thakur et. al. 2013, J. Med. Chem. 2013 Nov. 14; 56(21):8943-7. doi: 10.1021/jm401267t). For experiments involving PAM and ago-PAM analogs, where standard levels of expression result in ion currents too large to be recorded in voltage clamp, experiments were typically conducted 1-3 days after RNA injection.
Two-electrode voltage clamp was conducted using OpusXpress 6000A (Molecular Devices, Union City, Calif.). Both the voltage and current electrodes were filled with 3 M KCl. Oocytes were voltage-clamped at −60 mV except when determining the effect of voltage on channel activation. The oocytes were bath-perfused with Ringer's solution (115 mM NaCl, 2.5 mM KCl, 1.8 mM CaCl2, 10 mM HEPES, and 1 μM atropine, pH 7.2) with a flow rate of 2 mL/min. To evaluate the effects of experimental compounds on ACh-evoked responses of alpha-7 nAChRs expressed in oocytes, the initial control responses were measured with two applications of ACh alone, before applications of experimental drugs alone or co-applications with ACh. The agonist solutions were applied from a 96-well plate via disposable tips, and the drugs were either co-applied with ACh by the OpusXpress pipette delivery system or bath-applied using the OpusXpress system to switch the running buffer. Drug applications were for 12 s followed by a 181 s washout period and usually alternated between controls and test solutions. After experimental drug applications, follow-up control applications of ACh were made to determine primed potentiation, desensitization or rundown of the receptors. Data were collected at 50 Hz, filtered at 20 Hz, analyzed by Clampfit 9.2 (Molecular Devices) and Excel (Microsoft, Redmond Wash.), and normalized to the averaged current of the two initial control responses. Data were expressed as mean±SEM from at least four oocytes for each experiment. For the concentration-response relationships, responses were normalized to the net charge of the most adjacent prior control.
A detailed comparative activity profile of select ago-PAMs/PAMs based on the structure of 4BP-TQS was obtained. […] They also functioned as direct PAMs, producing responses when co-applied with ACh. However, the primed potentiation of response to ACh alone was less after direct potentiation than after direct activation, due to residual induction of PAM-insensitive desensitization.

[5] = test system: CCI mice; assay: Chronic constriction injury (CCI) model, mechanical allodynia (von Frey); type: in vivo, mouse; settings: for threshold for pain in the CCI model: dose of 1 mg/kg, FIG. 5B
Description: Mice were anesthetized with pentobarbital (45 mg/kg, i.p.). An incision was made just below the hipbone, parallel to the sciatic nerve. The right common sciatic nerve was exposed at the level proximal to the sciatic trifurcation, and a nerve segment 3-5 mm long was separated from surrounding connective tissue. Two loose ligatures with 6-0 silk suture were made around the nerve with a 1.0-1.5 mm interval between them. Muscles were closed with suture thread and the wound with wound clips. […] Any suture that remained after two weeks was removed from the healed surgical wound. Mechanical allodynia (von Frey test) was measured before and after drug injections.
The antiallodynic effects of test compounds were assessed in three experiments consisting of CCI mice and sham control mice. […] The anti-allodynic effects of alpha-7 nAChRs PAMs and ago-PAMs were tested (four doses and vehicle control, N=10 mice/group, administered i.p.) in the CCI model. Mice were assessed for mechanical allodynia 2 weeks after the CCI surgery. All these studies will be conducted in blinded manner. CCI and sham control mice received two conditioning sessions per day (vehicle in the morning and drug in the afternoon) over the course of 3 days, and were tested for a place preference on day 7 without any injections.
Pain behavioral data are presented as mean±S.E.M. (see FIGS. 5A and 5B). Statistical analysis was performed using the t-test or two-way analysis of variance test, followed by the post-hoc Bonferroni's test. All differences were considered significant at p<0.05, and significant differences are shown with asterisks in FIGS. 5A and 5B. ED50 values with 95% confidence limits (CL) were calculated by unweighted least-squares linear regression.

alpha-7 nAChRs, sequence (P36544 23-502): as above

Structure (SMILES)	Charge Alone [3]	Charge +C [3]	other results
NS(=O)(=O)c1ccc2c(c1)C1C=CCC1C(c1ccc(Br)cc1)N2 (racemic) [Compound 4BP-TQS, 4-(4-bromophenyl)-3a,4,5,9b-tetrahydro-3H-cyclopenta[c]quinoline-8-sulfonamide]			maximal response larger than ACh ([1]; agonist efficacy relative to ACh): 45 fold; EC50 lower than ACh ([1]; agonist potency relative to ACh): 8 fold
NS(=O)(=O)c1ccc2c(c1)[C@H]1C=CC[C@H]1[C@@H](c1ccc(Br)s1)N2 (stereo in doubt) [Compound 36, 4-(5-bromothiophen-2-yl)-3a,4,5,9b-tetrahydro-3H-cyclopenta[c]quinoline-8-sulfonamide]	48	1145	solubility compared to GAT107 [2]: significantly better solubility compared to GAT107; direct activation when applied alone [4]: directly activated human alpha-7 nAChR; primed potentiation of subsequent responses to ACh applied alone [4]: large primed potentiation; peak efficacy in the presence of ACh [4]: almost equal peak efficacy; reversal of CCI effect ([5]; 1 mg/kg): completely reversed the effect; threshold for pain in the CCI model [5]: effective in increasing the threshold for pain; effectiveness relative to GAT155 in the CCI model ([5]; same dose of 1 mg/kg): twice as effective at every time point; effect on sham mice ([5]; sham control mice): without showing any significant effect on the sham mice
NS(=O)(=O)c1ccc2c(c1)[C@H]1C=CC[C@H]1[C@@H](c1cc(Br)cs1)N2 (stereo in doubt) [Compound 37, 4-(4-bromothiophen-2-yl)-3a,4,5,9b-tetrahydro-3H-cyclopenta[c]quinoline-8-sulfonamide]	0	163	solubility compared to GAT107 [2]: significantly better solubility compared to GAT107; direct activation when applied alone [4]: negligible direct activation; primed potentiation of subsequent responses to ACh applied alone [4]: large primed potentiation; peak efficacy in the presence of ACh [4]: almost equal peak efficacy; threshold for pain in the CCI model [5]: effective in increasing the threshold for pain
CC(C)(C)CC(=O)Nc1ccc([C@H]2Nc3ccc(S(N)(=O)=O)cc3[C@H]3C=CC[C@H]32)cc1 (stereo in doubt) [Compound 64, 3,3-dimethyl-N-(4-(8-sulfamoyl-3a,4,5,9b-tetrahydro-3H-cyclopenta[c]quinolin-4-yl)phenyl)butanamide]	597	652	effectiveness as ago-PAM compared to GAT154 [4]: almost equally effective as ago-PAMs; effectiveness as allosteric agonist compared to GAT154 [4]: more effective as allosteric agonists
CC(C)(C)NC(=O)Oc1ccc([C@H]2Nc3ccc(S(N)(=O)=O)cc3[C@H]3C=CC[C@H]32)cc1 (stereo in doubt) [Compound 65, 4-(8-sulfamoyl-3a,4,5,9b-tetrahydro-3H-cyclopenta[c]quinolin-4-yl)phenyl tert-butylcarbamate]	332	740	effectiveness as ago-PAM compared to GAT154 [4]: almost equally effective as ago-PAMs; effectiveness as allosteric agonist compared to GAT154 [4]: more effective as allosteric agonists
CC(C)(C)OC(=O)Nc1ccc([C@H]2Nc3ccc(S(N)(=O)=O)cc3[C@H]3C=CC[C@H]32)cc1 [Compound 24]	212	580	'ago' component / ago-PAM activity ([3]; in words): increased ‘ago’ component; types of activity (direct activation, direct potentiation, primed potentiation) [4]: exhibited all three types of activities
O=S(=O)(c1ccc2c(c1)[C@H]1C=CC[C@H]1[C@@H](c1ccc(Br)cc1)N2)N1CCCC1 [Compound 57, (3aR,4S,9bS)-4-(4-bromophenyl)-8-(pyrrolidin-1-ylsulfonyl)-3a,4,5,9b-tetrahydro-3H-cyclopenta[c]quinolone]	Inactive	Inactive	
NS(=O)(=O)c1ccc2c(c1)C1C=CCC1C(c1ccc(C(=O)O)cc1)N2 (stereo not shown) [Compound 58, 4-(8-sulfamoyl-3a,4,5,9b-tetrahydro-3H-cyclopenta[c]quinolin-4-yl)benzoic acid]	Inactive	Inactive	
COC(=O)Nc1ccc([C@H]2Nc3ccc(S(N)(=O)=O)cc3[C@H]3C=CC[C@H]32)cc1 [Compound 59, methyl(4-(8-sulfamoyl-3a,4,5,9b-tetrahydro-3H-cyclopenta[c]quinolin-4-yl)phenyl)carbamate]		480	
NS(=O)(=O)c1ccc2c(c1)[C@H]1C=CC[C@H]1[C@@H](c1cc(Br)sc1Br)N2 [Compound 67, (3aR,4S,9bS)-4-(2,5-dibromothiophen-3-yl)-3a,4,5,9b-tetrahydro-3H-cyclopenta[c]quinoline-8-sulfonamide]		100	
NS(=O)(=O)c1ccc2c(c1)[C@H]1C=CC[C@H]1[C@@H](c1ccc(CCCBr)cc1)N2 [Compound 71, 4-(4-(3-bromopropyl)phenyl)-3a,4,5,9b-tetrahydro-3H-cyclopenta[c]quinoline-8-sulfonamide]	1	284	
NS(=O)(=O)c1ccc2c(c1)[C@H]1C=CC[C@H]1[C@@H](c1ccc(Br)nc1)N2 [Compound 94, 4-(6-bromopyridin-3-yl)-3a,4,5,9b-tetrahydro-3H-cyclopenta[c]quinoline-8-sulfonamide]	29	348	
O=S(=O)(NC1CCC1)c1ccc2c(c1)[C@H]1C=CC[C@H]1[C@@H](c1ccc(Br)cc1)N2 [Compound 104, 4-(4-bromophenyl)-N-cyclobutyl-3a,4,5,9b-tetrahydro-3H-cyclopenta[c]quinoline-8-sulfonamide]	Inactive	Inactive	
CCNS(=O)(=O)c1ccc2c(c1)[C@@H]1C=CC[C@@H]1[C@@H](c1ccc(Br)cc1)N2 [Compound 113]	Inactive	Inactive	
CCNS(=O)(=O)c1ccc2c(c1)[C@H]1C=CC[C@H]1[C@@H](c1ccc(Br)cc1)N2 [Compound 114]	Inactive	Inactive	
CS(=O)(=O)c1ccc2c(c1)[C@H]1C=CC[C@H]1[C@@H](c1ccc(Br)cc1)N2 [Compound 117, 4-(4-bromophenyl)-8-(methylsulfonyl)-3a,4,5,9b-tetrahydro-3H-cyclopenta[c]quinolone]	Inactive	Inactive	
